{
  "source": "patent US20050054103A1",
  "about": "“Expansion of renewable stem cell populations using modulators of PI 3-kinase” (priority 2003, published 2005)",
  "test_system": "CD34+ cells",
  "test": "Ex-vivo expansion of CD34+ cell enriched cultures with RAR antagonist, cell counts and FACS surface antigen analysis",
  "format": "cell-based, human",
  "details": "for No. of cells (× 10^4): 2 weeks after seeding; for No. of CD34+ cells: RAR antagonist 10^−5 M for one week only",
  "procedure": "Human blood cells were obtained from umbilical cord blood from female patients following full-term, normal delivery (informed consent was obtained). Samples were collected and processed within 12 hours postpartum. Blood was mixed with 3% Gelatin (Sigma, St. Louis, Mo.), sedimented for 30 minutes to remove most red blood cells. […] The mononuclear cell fraction in the interface layer was collected, washed three times and resuspended in phosphate-buffered saline (PBS) solution (Biological Industries) containing 0.5% bovine serum albumin (BSA, Fraction V; Sigma).\nTo purify CD34^+ mononuclear cells, the fraction was subjected to two cycles of immuno-magnetic separation using the MiniMACS® or Clinimax® CD34 Progenitor Cell Isolation Kit (Miltenyi Biotec, Auburn, Calif.) as per manufacturer's recommendations.\nCD34^+ expressing purified cells above were cultured in 24-well Costar Cell Culture Clusters (Coming Inc., Corning, N.Y.) or culture bags (American Fluoroseal Corp), at a concentration of 10^4 cells/ml in alpha medium (Biological Industries, Beit Haemek, Israel) supplemented with 10% fetal bovine serum (FBS, Biological Industries). The following human recombinant cytokines were added: Thrombopoietin (TPO), interleukin-6 (IL-6), FLT-3 ligand and stem cell factor (SCF), all at final concentrations of 50 ng/ml each, though occasionally IL-3, at a concentration of 20 ng/ml, was added either together or instead of SCF. For non-hematopoietic cell differentiation, FGF, EGF, NGF, VEGF, LIF or Hepatocyte growth factor (HGF) were used to supplement the growth medium, either alone or in various combinations. All cytokines used were purchased from Perpo Tech, Inc. (Rocky Hill, N.J.). The cultures were incubated at 37° C., 5% CO2, in a humidified atmosphere.\nAt weekly intervals, cell cultures were toped and semi-depopulated and were supplemented with fresh medium, serum and cytokines or supplemented with fresh growth medium, alone. At predetermined time points, cells were harvested, stained with trypan blue, counted, and cell morphology was determined via the use of cytospin (Shandon, UK)-prepared smears stained with May-Grunwald/Giemsa solutions.\nCD34^+ purified and whole MNC cultures were prepared and maintained as described above. […] The antagonist was added for a predetermined, limited period, for up to three weeks or continuously during the entire culture period.\nCells were harvested, washed with a PBS solution containing 1% bovine sera albumin (BSA) and 0.1% sodium azide (Sigma), and stained at 4° C. for 60 minutes with fluorescein isothiocyanate or phycoerythrin-conjugated antibodies (all from Immunoquality Products, the Netherlands). The cells were then washed with the same buffer and analyzed by FACS caliber or Facstarplus flow cytometers. Cells were passed at a rate of 1000 cells/second, using saline as the sheath fluid. A 488 nm argon laser beam served as the light source for excitation. Emission of ten thousand cells was measured using logarithmic amplification, and analyzed using CellQuest software. Negative control staining of cells was accomplished with mouse IgG-PE (Dako A/S Glostrup, Denmark) and mouse IgG-FITC (BD Biosciences, Erembodegem, Belgium).\nCD34 surface expression on short and long-term cultures initiated either with purified CD34^+ cells or the entire MNC fraction was determined as follows: CD34^+ cells were positively reselected (Miltenyi kit) and counted. Purity was confirmed by subsequent FACS and cell morphology analysis.\nReselected CD34^+ cell subsets were stained for the following combination of antigens: CD34PE/CD38FITC and CD34PE/38, 33, 14, 15, 3, 4, 61, 19 (Lin) FITC. The fraction positive for CD34 and negative for CD38 was defined as CD34^+CD38^−. The fraction positive for CD34 and negative for LIN was defined as CD34^+Lin^− cell fraction.\nFACS analysis results are given as percentage values of cells. Absolute numbers of subsets are calculated from the absolute number of CD34^+ cells.",
  "key": {"[1]": {"details": "RAR antagonist 10^−5 M, 2 weeks"}, "[2]": {"details": "RAR antagonist 10^−6 M, 2 weeks"}, "[3]": {"details": "reselected CD34+ cells after two weeks in culture"}},
  "data": [
    {"smiles": "CCc1ccc(C2=CC(C)(C)Sc3ccc(C#Cc4ccc(C(=O)O)cc4)cc32)cc1", "note": "[AGN 194310]", "values": [
      {"measurement": "cell proliferation enabled until (post initial seeding)", "setting": "AGN194310 10^−7 M", "result": "≤ 11", "unit": "weeks"},
      {"measurement": "expression of the CD38 antigen", "setting": "FACS, 2 weeks", "result": "completely abolished"},
      {"measurement": "No. of cells (× 10^4)", "setting": "RAR antagonist 10^−5 M + 4 cytokines", "result": "42 × 10^4"},
      {"measurement": "No. of CD34+ cells", "setting": "week 13", "result": 10322},
      {"measurement": "No. of CD34+ cells", "setting": "week 20", "result": 0},
      {"measurement": "% 34^+/38^−cells", "setting": "[1]", "result": 17.14, "unit": "%"},
      {"measurement": "% 34^+/Lin^−cells", "setting": "[1]", "result": 15.18, "unit": "%"},
      {"measurement": "% 34^+cells", "setting": "[1]", "result": 18.94, "unit": "%"},
      {"measurement": "No. of cells (× 10^4)", "setting": "RAR antagonist 10^−6 M + 4 cytokines", "result": "52 × 10^4"},
      {"measurement": "% 34^+/38^−cells", "setting": "[2]", "result": 17.16, "unit": "%"},
      {"measurement": "% 34^+/Lin^−cells", "setting": "[2]", "result": 11.91, "unit": "%"},
      {"measurement": "% 34^+cells", "setting": "[2]", "result": 19.59, "unit": "%"},
      {"measurement": "increase in CD34+ expression between week three to eleven", "setting": "RAR antagonist first three weeks only, then eight weeks without", "result": 92, "unit": "fold"},
      {"measurement": "CD34^+Lin^− expansion", "setting": "after two weeks in culture, CD34+ re-selected fraction", "result": 530, "unit": "fold"},
      {"measurement": "increase in CD34^+CD38^− surface expression", "setting": "[3]", "result": 1000, "unit": "fold"},
      {"measurement": "increase in CD34^+Lin^− surface expression", "setting": "[3]", "result": 500, "unit": "fold"},
      {"measurement": "expansion of CD34+ compartment since the initiation of the cultures", "setting": "week 11, RAR antagonist first three weeks only", "result": 1621, "unit": "fold"},
      {"measurement": "increase in CD34^+Lin^− expression", "setting": "week eleven, 9 weeks after termination of antagonist treatment", "result": "16,700 fold"}
    ]}
  ]
}
